Results on 2 molecules are retold here after US9527857B2, “HSPC-sparing treatments for RB-positive abnormal cellular proliferation” (G1 Therapeutics, Inc., priority 2013, dated 2016).

For data set [1], the system named is ZR-75-1 (breast ductal carcinoma, Rb-positive). Description: Cellular proliferation assay (CellTiter-Glo), ZR-75-1. In kind it is cell-based. As to the method: (§1) Cellular proliferation assays were conducted using the following cancer cell lines: MCF7 (breast adenocarcinoma—Rb-positive), ZR-75-1 (breast ductal carcinoma—Rb-positive), H69 (human small cell lung cancer—Rb-negative) cells, or A2058 (human metastatic melanoma cells—Rb-negative). These cells were seeded in Costar (Tewksbury, Mass.) […] 96 well tissue culture treated white walled/clear bottom plates. Cells were treated with the compounds of Table 1 as nine point dose response dilution series from 10 uM to 1 nM. Cells were exposed to compounds and then cell viability was determined after either four (H69) or six (MCF7, ZR75-1, A2058) days as indicated using the CellTiter-Glo® luminescent cell viability assay (CTG; Promega, Madison, Wis., United States of America) following the manufacturer's recommendations. Plates were read on BioTek (Winooski, Vt.) Syngergy2 multi-mode plate reader. The Relative Light Units (RLU) were plotted as a result of variable molar concentration and data was analyzed using Graphpad (LaJolla, Calif.) Prism 5 statistical software to determine the EC50 for each compound.

In data set [2] the test system is MCF7 (breast adenocarcinoma, Rb-positive). Kind of data set: Cellular proliferation assay (CellTiter-Glo), MCF7. The class given is cell-based. Here is the method:
The MCF7 cells were seeded in Costar (Tewksbury, Mass.) 3903 96 well tissue culture treated white walled/clear bottom plates. A nine point dose response dilution series from 10 uM to 1 nM was performed and cell viability was determined after six days of compound treatment as indicated using the CellTiter-Glo® luminescent cell viability assay (CTG; Promega, Madison, Wis., United States of America) following the manufacturer's recommendations. Plates were read on a BioTek (Winooski, Vt.) Syngergy2 multi-mode plate reader. The Relative Light Units (RLU) were plotted as a result of variable molar concentration and data was analyzed using Graphpad (LaJolla, Calif.) Prism 5 statistical software to determine the EC50 for each compound.
as §1

A further data set has as its target CDK4/CyclinD1 (Homo sapiens (Human), UniProt P11802). Kind of data set: CDK4/cyclinD1 kinase assay (Nanosyn, microfluidic Caliper platform). The class given is biochemical. The note with it: Table 3; read-out: CDK4/CycD1 IC50. Here is the method:
Selected compounds disclosed herein were tested in CDK4/cyclinD1, CDK2/CycA and CDK2/cyclinE kinase assays by Nanosyn (Santa Clara, Calif.) to determine their inhibitory effect on these CDKs. The assays were performed using microfluidic kinase detection technology (Caliper Assay Platform). The compounds were tested in 12-point dose-response format in singlicate at Km for ATP. Phosphoacceptor substrate peptide concentration used was 1 μM for all assays and Staurosporine was used as the reference compound for all assays. Specifics of each assay are as described below:
CDK4/CyclinD1: Enzyme concentration: 1 nM; ATP concentration: 200 μM; Incubation time: 10 hr.

The test system of data set [3] is MMTV-c-neu (Rb-positive) tumors. Description: MMTV-c-neu HER2-driven (Rb-positive) luminal breast cancer mouse model. The class given is in vivo, mice. An excerpt:
A HER2-driven model (Rb-positive) of breast cancer (Muller W J, Sinn E, Pattengale P K, Wallace R, Leder P. Single-step induction of mammary adenocarcinoma in transgenic mice bearing the activated c-neu oncogene. Cell 1988; 54: 105-15), that expresses c-neu (the mouse ortholog of human HER2) driven by the MMTV promoter was used in the following example. This model was chosen because previous studies in murine (Yu Q, Geng Y, Sicinski P. Specific protection against breast cancers by cyclin D1 ablation. Nature 2001; 411: 1017-21; Landis M W, Pawlyk B S, Li T, Sicinski P, Hinds P W. Cyclin D1-dependent kinase activity in murine development and mammary tumorigenesis. Cancer Cell 2006; 9: 13-22; Reddy H K, Mettus R V, Rane S G, Grana X, Litvin J, Reddy E P. Cyclin-dependent kinase 4 expression is essential for neu-induced breast tumorigenesis. Cancer Res 2005; 65: 10174-8; Yu Q, Sicinska E, Geng Y, Ahnstrom M, Zagozdzon A, Kong Y, et al. Requirement for CDK4 kinase function in breast cancer. Cancer Cell 2006; 9: 23-32.) and human HER2-positive breast cancer (An H X, Beckmann M W, Reifenberger G, Bender H G, Niederacher D. Gene amplification and overexpression of CDK4 in sporadic breast carcinomas is associated with high tumor cell proliferation. Am J Pathol 1999; 154: 113-8; Samady L, Dennis J, Budhram-Mahadeo V, Latchman DS. Activation of CDK4 gene expression in human breast cancer cells by the Brn-3b POU family transcription factor. Cancer Biol Ther 2004; 3: 317-23; Takano Y, Takenaka H, Kato Y, Masuda M, Mikami T, Saegusa M, et al. Cyclin D1 overexpression in invasive breast cancers: correlation with cyclin-dependent kinase 4 and oestrogen receptor overexpression, and lack of correlation with mitotic activity.
MMTV-neu mice were generated and observed post-lactation, with tumors observed with a median latency of approximately 25 weeks. Mice were enrolled in therapy studies when tumors reached a standard size (50-60 mm3) that permitted easy serial assessment. […] Tumor volumes were calculated by the formula, Volume=[(width)^2×length]/2. Tumor-bearing mice were euthanized at the indicated times due to predefined morbidity, tumor ulceration, or a tumor size of more than 1.5 cm in diameter.
Tumors were serially assessed weekly using caliper measurements. Therapeutic intervention began once tumors reached 40-64 mm^3. Tumor volume was calculated using the formula […]. All three compounds were administered orally via medicated diets (100 mg/kg/d). Medicated diets were administered for 28 consecutive days and then stopped. RECIST criteria were used to assess objective response rates.

For data set [4], the system named is HSPCs (LKS+). Description: Bone marrow HSPC proliferation by EdU incorporation and flow cytometry. The class given is in vivo. The note with it: 150 mg/kg oral gavage, mice. Here is the method:
. JCNI 2012; 104(6):476-487 (FIG. 2A). […].
Mice were then sacrificed at the indicated times (0, 12, 24, 36, or 48 hours following compound administration), and bone marrow was harvested (n=3 mice per time point), as previously described (Johnson et al. J. Clin. Invest. (2010) 120(7), 2528-2536). Four hours before the bone marrow was harvested, mice were treated with 100 μg of EdU by intraperitoneal injection (Invitrogen). Bone marrow mononuclear cells were harvested and immunophenotyped using previously described methods and percent EdU positive cells were then determined (Johnson et al. J. Clin. Invest. (2010) 120(7), 2528-2536). In brief, HSPCs were identified by expression of lineage markers (Lin−), Sca1 (S+), and c-Kit (K+).
Four hours before animals were sacrificed and the bone marrow was harvested, mice were treated with 100 μg of EdU by intraperitoneal injection. Three mice per group were sacrificed at 12 hours and the remaining three animals per group were sacrificed at 24 hours. Results are shown in FIG. 5A as the ratio of EdU positive cells for treated animals at 12 or 24 hour time points compared to control.
Further experiments were completed with Compound T examining dose response and longer periods of compound treatment. […] […].
Both compounds were administered at 150 mg/kg by oral gavage. One hour prior to harvesting bone marrow, EdU was IP injected to label cycling cells. Bone marrow was harvested at 12, 24, 36, and 48 hours after compound treatment and the percentage of EdU positive HSPC cells was determined at each time point.

The next data set concerns the target CDK6/CycD3 (Homo sapiens (Human), UniProt Q00534). Kind of data set: CDK6/CycD3 kinase assay. The class given is biochemical.
Data set [5] is described as follows: Mouse pharmacokinetics (oral gavage / intravenous). In kind it is in vivo, mice. The note with it: plasma, 30 mg/kg, read-out: F (oral bioavailability). As to the method:
Blood samples were taken at 0, 0.25, 0.5, 1.0, 2.0, 4.0, and 8.0 hours post dosing and the plasma concentrations were determined by HPLC.

The subject of data set [6] is human renal proximal tubule epithelial cells (Rb-positive). Kind of data set: Cellular wash-out experiment, renal proximal tubule epithelial cells. In kind it is cell-based. As to conditions: 300 nM. As to the method:
Alternatively, the same experiment was done using normal Renal Proximal Tubule Epithelial Cells (Rb-positive) obtained from American Type Culture Collection (ATCC, Manassas, Va.). Cells were grown in an incubator at 37° C. in a humidified atmosphere of 5% CO2 in Renal Epithelial Cell Basal Media (ATCC) supplemented with Renal Epithelial Cell Growth Kit (ATCC) in 37° C. humidified incubator.
(§2) Upon harvesting cells, samples were stained with propidium iodide staining solution and samples run on Dako Cyan Flow Cytometer. The fraction of cells in G0-G1 DNA cell cycle versus the fraction in S-phase DNA cell cycle was determined using FlowJo 7.2 0.2 analysis.

The conditions of data set [7]: Schwartz et al. (2011); cited from earlier work.
For data set [8], the system named is myeloid progenitor cells (LKS-). The note with it: single oral dose 150 mg/kg, mice; Roberts et al.; cited from earlier work.
Data set [9] can be described thus: PD0332991 pharmacokinetics and HSPC arrest in humans. In kind it is in vivo. As to conditions: single administration. As to the method:
When calculated half-life was longer than the duration of the experiment, the half-life was expressed as >the longest incubation time. The calculated half-life is also listed in parentheses. […] The timely resumption of cellular proliferation is necessary for tissue repair, and therefore an overly long period of arrest is undesirable in healthy cells such as HSPCs. The characteristics of a CDK4/6 inhibitor that dictate its arresting duration are its pharmacokinetic (PK) and enzymatic half-lives. Once initiated, a G1-arrest in vivo will be maintained as long as circulating compound remains at an inhibitory level, and as long as the compound engages the enzyme. […] These observations may explain the severe granulocytopenia seen with PD0332991 in the clinic.

The subject of data set [10] is HSPCs (LKS+). The note with it: single oral dose 150 mg/kg, mice; Roberts et al.; cited from earlier work.
For data set [11], the system named is HS68 cells (human fibroblast, Rb-positive). Kind of data set: Cellular wash-out experiment, HS68 cells. The class given is cell-based. The note with it: in vitro wash-out experiment. As to the method:
[…]. On day 3, one set of treated cell samples were harvested in triplicate (0 Hour sample). Remaining cells were washed two times in PBS-CMF and returned to culture media lacking test compound. Sets of samples were harvested in triplicate at 24, 40, and 48 hours.
as §2

Sequence of CDK4/CyclinD1 (P11802 whole entry, species assumed): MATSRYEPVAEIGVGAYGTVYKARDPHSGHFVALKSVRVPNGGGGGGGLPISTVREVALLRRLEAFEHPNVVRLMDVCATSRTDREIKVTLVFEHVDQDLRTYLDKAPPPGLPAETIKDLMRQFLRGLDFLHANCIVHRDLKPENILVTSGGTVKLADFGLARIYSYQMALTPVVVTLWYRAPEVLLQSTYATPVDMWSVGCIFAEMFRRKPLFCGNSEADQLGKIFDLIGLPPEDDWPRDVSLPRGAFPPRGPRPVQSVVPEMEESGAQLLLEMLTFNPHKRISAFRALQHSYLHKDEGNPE
Sequence of CDK4/CyclinD1 (P24385 whole entry partner, species assumed): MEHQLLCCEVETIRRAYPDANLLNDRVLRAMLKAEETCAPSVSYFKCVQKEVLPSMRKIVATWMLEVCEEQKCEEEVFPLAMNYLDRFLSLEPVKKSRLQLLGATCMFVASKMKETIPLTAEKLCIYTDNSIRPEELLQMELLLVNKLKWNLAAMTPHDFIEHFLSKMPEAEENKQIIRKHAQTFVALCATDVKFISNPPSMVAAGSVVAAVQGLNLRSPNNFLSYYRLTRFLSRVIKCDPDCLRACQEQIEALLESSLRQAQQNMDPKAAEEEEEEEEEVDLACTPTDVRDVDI
Sequence of CDK6/CycD3 (Q00534 whole entry, species assumed): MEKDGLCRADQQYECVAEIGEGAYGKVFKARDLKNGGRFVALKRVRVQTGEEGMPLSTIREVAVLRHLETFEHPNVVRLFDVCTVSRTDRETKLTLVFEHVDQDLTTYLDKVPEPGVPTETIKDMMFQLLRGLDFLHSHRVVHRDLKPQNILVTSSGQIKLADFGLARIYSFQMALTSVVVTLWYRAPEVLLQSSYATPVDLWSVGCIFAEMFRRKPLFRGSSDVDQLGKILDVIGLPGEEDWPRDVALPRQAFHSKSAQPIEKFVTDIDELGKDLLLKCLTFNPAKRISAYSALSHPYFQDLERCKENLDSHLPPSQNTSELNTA
Sequence of CDK6/CycD3 (P30281 whole entry partner, species assumed): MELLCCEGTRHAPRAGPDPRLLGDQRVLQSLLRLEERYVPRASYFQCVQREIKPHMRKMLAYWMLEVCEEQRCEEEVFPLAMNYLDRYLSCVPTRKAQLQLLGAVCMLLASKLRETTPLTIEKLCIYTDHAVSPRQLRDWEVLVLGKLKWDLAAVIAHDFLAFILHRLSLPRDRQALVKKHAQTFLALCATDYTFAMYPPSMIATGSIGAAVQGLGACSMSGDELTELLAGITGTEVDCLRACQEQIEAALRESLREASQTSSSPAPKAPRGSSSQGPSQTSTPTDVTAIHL

For `CC(C)N1CCN(c2ccc(Nc3ncc4cc5n(c4n3)C3(CCCCC3)CNC5=O)nc2)CC1` [GG], the “inhibition of cellular proliferation of ZR75-1 cells (FIGS. 25-28)” value in data set [1] is given as “significant inhibition of cellular proliferation”. The “inhibition of cellular proliferation of MCF-7 cells (FIGS. 21-24)” value in data set [2] is listed as “significant inhibition of cellular proliferation”. Also, the IC50 at CDK4/CyclinD1 was 0.7 to 1 nM; on CDK6/CycD3 it was 5 to 6 nM. In addition, in data set [3] (100 mg/kg/d in chow), the “tumor volume during a 28 day course of therapy” value was “marked decrease in tumor volume”. Also, the objective response rate in data set [3] (100 mg/kg/day medicated diet, 28 days, RECIST criteria) is recorded as 85%. Also, the “EdU incorporation into HSPCs at 12 and 24 hours (FIG. 5A)” value in the data set with HSPCs (LKS+) [4] is listed as “reduction in EdU incorporation at 12 hours which was starting to return to normal at 24 hours”. For the same molecule, the bioavailability in data set [5] came out at 52%.
Take `CC(=O)c1c(C)c2cnc(Nc3ccc(N4CCNCC4)cn3)nc2n(C2CCCC2)c1=O` [PD0332991, 6-acetyl-8-cyclopentyl-5-methyl-2-(5-piperazin-1-yl-pyridin-2-ylammino)-8H-pyrido-[2,3-d]-pyrimidin-7-one]: in [6], the “return to baseline levels of cell division after wash out compared to compounds T, Q, GG, or U” value is “took significantly longer to return to baseline levels of cell division”. Also, the “inhibition of cellular proliferation of ZR75-1 cells (FIGS. 25-28)” value in data set [1] is given as “significant inhibition of cellular proliferation”. Also, the “inhibition of cellular proliferation of MCF-7 cells (FIGS. 21-24)” value in data set [2] is recorded as “significant inhibition of cellular proliferation”. Besides, the “PK half-life in humans” value in data set [7] is 27 h. In addition, in data set [8], the “duration of sustained reduction in myeloid progenitor cell EdU incorporation (FIG. 2)” value is given as “greater than 36 hours” and the “time post oral dosing at which myeloid progenitor cells return to baseline cell division (FIG. 2)” value is 48 h. Also, the “duration of cell cycle arrest of HSPC in humans” value in data set [9] is given as “approximately one week”. Further, in the data set with HSPCs (LKS+) [10], the “duration of sustained reduction in HSPC EdU incorporation (FIG. 2)” value was “greater than 36 hours” and the “time post oral dosing at which HSPC return to baseline cell division (FIG. 2)” value is 48 h. The “duration of cell cycle arrest after compound is removed from the cell culture media” value in [11] is given as “more than forty hours”.
